{"source": "patent US12629406B2", "about": "“Alterations in endothelin receptors following hemorrhage and resuscitation by centhaquin” (MIDWESTERN UNIVERSITY, priority 2018, dated 2026)", "key": {"[1]": {"assay": "Renal blood flow of hemorrhaged rats subjected to 20 minutes of renal artery occlusion", "type": "in vivo, rat", "method": "Effect of centhaquin on renal blood perfusion of hemorrhaged rats. Hemorrhaged rats were resuscitated with vehicle (saline) or centhaquin low dose (0.01 mg/kg) or high dose (0.1 mg/kg). The effect of centhaquin on renal blood perfusion was measured before the induction of shock, 30 minutes after shock (hemorrhage) and 10, 30, 60, 90 and 120 minutes after resuscitation. […] This improved renal medullary blood perfusion is indicative of a use of centhaquin to prevent or treat injury to the kidneys (FIG. 5). […] A low dose of 0.02 mg/kg of centhaquin was also found to be effective in increasing the renal blood flow of hemorrhaged rats subjected to 20 minutes of renal artery occlusion."}, "[2]": {"assay": "Renal blood perfusion in hemorrhaged rats with norepinephrine infusion to maintain MAP at 70 mmHg", "type": "in vivo, rat", "method": "Experimental design. To determine the resuscitative effect of centhaquin on cardiovascular system in hemorrhagic shock, rats were randomly divided into three groups: Hemorrhaged rats were administered 100% shed blood volume of either normal saline (vehicle); 100% shed blood volume of either normal saline plus centhaquin (0.01 mg/kg) or 100% shed blood volume of either normal saline plus centhaquin (0.10 mg/kg) during the first 10 minutes of resuscitation. Additional experiments were also carried out where the amount of norepinephrine (a very commonly used vasopressor during resuscitation) required to maintain MAP at 70 mmHg in normal saline (NS) or centhaquin (0.01 mg/kg) treated rats (volume equal to blood loss) was determined.\nThe femoral vein was cannulated for drug administration, femoral artery was cannulated for measuring mean arterial pressure (MAP) and a laser Doppler flow probe was placed in the renal medulla to measure blood perfusion. Induction of hemorrhagic shock was initiated by withdrawing blood to maintain the MAP at 35 mmHg for 30 minutes. Norepinephrine infusion was carried out to bring and maintain the MAP to 70 mmHg. The effect of centhaquin on cardiovascular functions were measured before the induction of shock, 30 minutes after shock (hemorrhage) and 15, 30, 45, 60, 75 and 90 minutes after resuscitation. […]"}, "[3]": {"conditions": "in vivo; cited from earlier work"}, "[4]": {"conditions": "cited from earlier work"}, "[5]": {"tested_on": "TNF-α", "assay": "Plasma TNF-α in hemorrhaged rats (ELISA)", "type": "in vivo, rat", "conditions": "p<0.01", "method": "Induction of Hemorrhagic Shock. Hemorrhage was induced by withdrawing blood from the femoral artery at a rate of approximately 0.5 to 1 mL/min until a MAP of 35 mmHg was reached. This MAP was maintained for 30 min by further withdrawal of blood, if necessary. The hemorrhagic shock model used in the present study is a well-established rodent model of manageable pressure hemorrhage (Buehler et al. 2000; Gulati et al. 1997a; Gulati and Sen 1998). The volume of blood loss was about approximately 8.0 ml in each rat and was similar in various groups, amounting to approximately 40% of the total blood. Measured hematocrit levels were similar in various groups. The duration of blood withdrawal was approximately 15 minutes.\nExperimental design. […] The blood samples, for biochemical estimations, were collected at 30 minutes of resuscitation and cardiovascular parameters were monitored till 60 minutes after which the animal was sacrificed. […]"}}}
{"compound": "Cc1cccc(N2CCN(CCc3ccc4ccccc4n3)CC2)c1", "note": "[centhaquin, 2-[2-(4-(3-methyphenyl)-1-piperazinyl)]ethyl-quinoline]", "values": [{"measurement": "increasing the renal blood flow", "setting": "[1]; high dose 0.2 mg/kg, versus 0.02 mg/kg", "result": "did not have the same efficacy"}, {"measurement": "increasing the renal blood flow", "setting": "[1]; low dose 0.02 mg/kg", "result": "effective"}, {"measurement": "renal blood perfusion compared to vehicle control following resuscitation", "setting": "[2]; hemorrhaged female rats, till the end of experiment", "result": "improved"}, {"measurement": "renal blood perfusion compared to vehicle control following resuscitation", "setting": "[2]; hemorrhaged male rats", "result": "improved"}, {"measurement": "half-life", "setting": "[3]", "result": "about one"}, {"measurement": "volume of distribution", "setting": "[3]", "result": "high"}, {"measurement": "survival compared to Lactated Ringer's", "setting": "[4]; 0.015 mg/kg in the fluid resuscitation phase", "result": "significantly better survival"}, {"measurement": "cardiac output (CO)", "setting": "[4]; 0.015 mg/kg", "result": "augments CO"}, {"measurement": "systemic vascular resistance (SVR)", "setting": "[4]; 0.015 mg/kg", "result": "reduces systemic vascular resistance"}, {"measurement": "volume of fluids for resuscitation", "setting": "[4]; 0.015 mg/kg", "result": "requires smaller volume of fluids"}, {"measurement": "plasma TNF-α level compared to hypertonic saline alone", "setting": "[5]", "result": "further increased"}]}
